Data taken from patent US8017612B2, “Piperazine compound and use thereof as a HCV polymerase inhibitor” (priority 2006, dated 2011).
pIC50: −log10 of the molar value.

Experiments:
[1] = target: T1, HCV polymerase (NS5B) type 1a (Hepatitis C virus genotype 1a, UniProt P26664); assay: Assay of enzyme (HCV polymerase) inhibitory activity, type 1a enzyme; type: biochemical, HCV type 1a (cloned from the blood of patients); conditions: HCV polymerase inhibitory activity IC50, 1a, type 1a enzyme
T1 construct: made in house; host or cells: Escherichia coli (by the 'similar method' of the 1b enzyme)
Outline: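 Reactions ran 60 min at 25° C in 20 mM Tris-HCl pH 7.5, 5 mM MgCl2, 50 mM NaCl, holding genotype 1a NS5B (1.5 μg/ml, Δ47 C-terminus, 6His), substrate RNA 5 μg/ml, UTP 2 μM with tritiated UTP and other NTPs 50 μM. IC50 derived from incorporated radiolabel in filter-trapped RNA relative to uninhibited reaction.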

[2] = target: T2, HCV polymerase (NS5B) type 1b (Hepatitis C virus genotype 1b, UniProt P26663); assay: Assay of enzyme (HCV polymerase) inhibitory activity, type 1b enzyme; type: biochemical, HCV BK strain (type 1b); conditions: HCV polymerase inhibitory activity IC50, 1b, type 1b enzyme
T2 construct: a region encoding NS5B (J Virol 1991 March, 65(3), 1105-13, 544 amino acids after deletion of 47 amino acids on the C-terminal); 6xHis (C); made in house; host or cells: Escherichia coli
Outline: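 IC50 derived from [3H]UTP incorporation into TCA-insoluble RNA, compared with and without test compound. Reaction (25 °C, 60 min, Tris pH 7.5, 5 mM MgCl2): E. coli-expressed 1b NS5B Δ47 with His tag at 0.5 μg/ml, 5 μg/ml run-off substrate RNA, ATP/GTP/CTP 50 μM, UTP 2 μM.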

| SMILES | pIC50 [1] | pIC50 [2] |
| --- | --- | --- |
| CC(C)(C)NC(=O)c1cnc(N2CCN(S(=O)(=O)c3ccc(OC(F)(F)F)cc3)[C@@H](C(=O)NCc3ccc(OC(F)(F)F)cc3)C2)cn1 [Example 853, (R)-4-(4-trifluoromethoxy-benzenesulfonyl)-3,4,5,6-tetrahydro-2H-[1,2′]bipyrazinyl-3,5′-dicarboxylic acid 5′-tert-butylamide 3-(4-trifluoromethoxy-benzylamide)] | < 6.00 | 6.00 to 7.00 |
| CCc1ccc(S(=O)(=O)N2CCN(c3cnc4cncc(C(=O)O)c4n3)C[C@@H]2C(=O)NCc2ccc(C(C)(C)CC)cc2)cc1 [Example 854, 2-[(R)-3-[4-(1,1-dimethyl-propyl)-benzylcarbamoyl]-4-(4-ethyl-benzenesulfonyl)-piperazin-1-yl]-pyrido[3,4-b]pyrazine-8-carboxylic acid] | > 7.00 | > 7.00 |
| CCCCc1ccc(CNC(=O)[C@H]2CN(c3cnc4cncc(C(=O)O)c4n3)CCN2S(=O)(=O)c2ccc(CC)cc2)cc1 [Example 855, 2-[(R)-3-(4-butyl-benzylcarbamoyl)-4-(4-ethyl-benzenesulfonyl)-piperazin-1-yl]-pyrido[3,4-b]pyrazine-8-carboxylic acid] | > 7.00 | > 7.00 |
| CCCc1ccc(CNC(=O)[C@H]2CN(c3nc(C)c(C(O)C(=O)OCC)s3)CCN2S(=O)(=O)c2ccc(OC(F)(F)F)cc2)cc1 (stereo partly drawn) [Example 856, hydroxy-{4-methyl-2-[(R)-3-(4-propyl-benzylcarbamoyl)-4-(4-trifluoromethoxy-benzenesulfonyl)-piperazin-1-yl]-thiazol-5-yl}-acetic acid ethyl ester] | 6.00 to 7.00 | > 7.00 |
| CCCc1ccc(CNC(=O)[C@H]2CN(c3cnc4cncnc4n3)CCN2S(=O)(=O)c2ccc(OC(F)(F)F)cc2)s1 [Example 857, (R)-4-pteridin-7-yl-1-(4-trifluoromethoxy-benzenesulfonyl)-piperazine-2-carboxylic acid (5-propyl-thiophen-2-ylmethyl)-amide] | > 7.00 | > 7.00 |
| CCC(C)(C)c1ccc(CNC(=O)[C@H]2CN(c3cnc4cncc(C(=O)O)c4n3)CCN2S(=O)(=O)c2ccc(Cl)s2)cc1 [Example 858, 2-{(R)-4-(5-chloro-thiophene-2-sulfonyl)-3-[4-(1,1-dimethyl-propyl)-benzylcarbamoyl]-piperazin-1-yl}-pyrido[3,4-b]pyrazine-8-carboxylic acid] | > 7.00 | > 7.00 |
| CCCc1ccc(CNC(=O)[C@H]2CN(c3nc(C)c(C(=O)C(=O)NC)s3)CCN2S(=O)(=O)c2ccc(OC(F)(F)F)cc2)cc1 [Example 859, (R)-4-(4-methyl-5-methylaminooxalyl-thiazol-2-yl)-1-(4-trifluoromethoxy-benzenesulfonyl)-piperazine-2-carboxylic acid 4-propyl-benzylamide] | 6.00 to 7.00 | > 7.00 |
| CCCc1ccc(CNC(=O)[C@H]2CN(c3cnc4cncc(C(=O)O)c4n3)CCN2S(=O)(=O)c2ccc(Cl)s2)cc1 [Example 860, 2-[(R)-4-(5-chloro-thiophene-2-sulfonyl)-3-(4-propyl-benzylcarbamoyl)-piperazin-1-yl]-pyrido[3,4-b]pyrazine-8-carboxylic acid] | > 7.00 | > 7.00 |
| O=C(O)c1cncc2ncc(N3CCN(S(=O)(=O)c4ccc(Cl)s4)[C@@H](C(=O)NCc4ccc(OC(F)(F)F)cc4)C3)nc12 [Example 861, 2-[(R)-4-(5-chloro-thiophene-2-sulfonyl)-3-(4-trifluoromethoxy-benzylcarbamoyl)-piperazin-1-yl]-pyrido[3,4-b]pyrazine-8-carboxylic acid] | > 7.00 | > 7.00 |
| CCCc1ccc(CNC(=O)[C@H]2CN(c3nc4c(C(=O)OCC)n[nH]c(=O)c4s3)CCN2S(=O)(=O)c2ccc(CC)cc2)cc1 [Example 862, 2-[(R)-4-(4-ethyl-benzenesulfonyl)-3-(4-propyl-benzylcarbamoyl)-piperazin-1-yl]-7-oxo-6,7-dihydro-thiazolo[4,5-d]pyridazine-4-carboxylic acid ethyl ester] | > 7.00 | > 7.00 |
| CCCc1ccc(CNC(=O)[C@H]2CN(c3nc4c(C(=O)O)n[nH]c(=O)c4s3)CCN2S(=O)(=O)c2ccc(CC)cc2)cc1 [Example 863, 2-[(R)-4-(4-ethyl-benzenesulfonyl)-3-(4-propyl-benzylcarbamoyl)-piperazin-1-yl]-7-oxo-6,7-dihydro-thiazolo[4,5-d]pyridazine-4-carboxylic acid] | > 7.00 | > 7.00 |
| O=C(NCc1ccc(OC(F)(F)F)cc1)[C@H]1CN(c2nc3cn[nH]c(=O)c3s2)CCN1S(=O)(=O)c1ccc(F)cc1 [Example 864, (R)-1-(4-fluoro-benzenesulfonyl)-4-(7-oxo-6,7-dihydro-thiazolo[4,5-d]pyridazin-2-yl)-piperazine-2-carboxylic acid 4-trifluoromethoxy-benzylamide] | 6.00 to 7.00 | > 7.00 |
| CNC(=O)c1cncc2ncc(N3CCN(S(=O)(=O)c4ccc(OC(F)(F)F)cc4)[C@@H](C(=O)NCc4ccc(OC(F)(F)F)cc4)C3)nc12 [Example 865, 2-[(R)-4-(4-trifluoromethoxy-benzenesulfonyl)-3-(4-trifluoromethoxy-benzylcarbamoyl)-piperazin-1-yl]-pyrido[3,4-b]pyrazine-8-carboxylic acid methylamide] | > 7.00 | > 7.00 |
| CN(C)C(=O)c1cncc2ncc(N3CCN(S(=O)(=O)c4ccc(OC(F)(F)F)cc4)[C@@H](C(=O)NCc4ccc(OC(F)(F)F)cc4)C3)nc12 [Example 866, 2-[(R)-4-(4-trifluoromethoxy-benzenesulfonyl)-3-(4-trifluoromethoxy-benzylcarbamoyl)-piperazin-1-yl]-pyrido[3,4-b]pyrazine-8-carboxylic acid dimethylamide] | > 7.00 | > 7.00 |
| O=C(NCC1CN(c2ccccc2)C1)[C@H]1CN(c2cnc3cncnc3n2)CCN1S(=O)(=O)c1ccc(OC(F)(F)F)cc1 [Example 867, (R)-4-pteridin-7-yl-1-(4-trifluoromethoxy-benzenesulfonyl)-piperazine-2-carboxylic acid (1-phenyl-azetidin-3-ylmethyl)-amide] | 6.00 to 7.00 | 6.00 to 7.00 |
| CCCc1ccc(CNC(=O)[C@H]2CN(c3nc(Cl)c(C(=O)O)s3)CCN2S(=O)(=O)c2ccc(CC)cc2)cc1 [Example 868, 4-chloro-2-[(R)-4-(4-ethyl-benzenesulfonyl)-3-(4-propyl-benzylcarbamoyl)-piperazin-1-yl]-thiazole-5-carboxylic acid] | > 7.00 | > 7.00 |
| O=C(NCc1ccc(OC(F)(F)F)cc1)[C@H]1CN(c2nc3cnnc(Cl)c3s2)CCN1S(=O)(=O)c1ccc(OC(F)(F)F)cc1 [Example 869, (R)-4-(7-chloro-thiazolo[4,5-d]pyridazin-2-yl)-1-(4-trifluoromethoxy-benzenesulfonyl)-piperazine-2-carboxylic acid 4-trifluoromethoxy-benzylamide] | > 7.00 | > 7.00 |
| O=C(NCc1ccc(OC(F)(F)F)cc1)[C@H]1CN(c2nc3c(CO)n[nH]c(=O)c3s2)CCN1S(=O)(=O)c1ccc(OC(F)(F)F)cc1 [Example 870, (R)-4-(4-hydroxymethyl-7-oxo-6,7-dihydro-thiazolo[4,5-d]pyridazin-2-yl)-1-(4-trifluoromethoxy-benzenesulfonyl)-piperazine-2-carboxylic acid 4-trifluoromethoxy-benzylamide] | > 7.00 | > 7.00 |
| CC(C)NC(=O)c1cncc2ncc(N3CCN(S(=O)(=O)c4ccc(OC(F)(F)F)cc4)[C@@H](C(=O)NCc4ccc(OC(F)(F)F)cc4)C3)nc12 [Example 871, 2-[(R)-4-(4-trifluoromethoxy-benzenesulfonyl)-3-(4-trifluoromethoxy-benzylcarbamoyl)-piperazin-1-yl]-pyrido[3,4-b]pyrazine-8-carboxylic acid isopropylamide] | > 7.00 | > 7.00 |
| N#Cc1cncc2ncc(N3CCN(S(=O)(=O)c4ccc(OC(F)(F)F)cc4)[C@@H](C(=O)NCc4ccc(OC(F)(F)F)cc4)C3)nc12 [Example 872, (R)-4-(8-cyano-pyrido[3,4-b]pyrazin-2-yl)-1-(4-trifluoromethoxy-benzenesulfonyl)-piperazine-2-carboxylic acid 4-trifluoromethoxy-benzylamide] | > 7.00 | > 7.00 |
| O=C(NCc1ccc(OC(F)(F)F)cc1)[C@H]1CN(c2nc3cn[nH]c(=O)c3s2)CCN1S(=O)(=O)c1ccc(Cl)cc1 [Example 873, (R)-1-(4-chloro-benzenesulfonyl)-4-(7-oxo-6,7-dihydro-thiazolo[4,5-d]pyridazin-2-yl)-piperazine-2-carboxylic acid 4-trifluoromethoxy-benzylamide] | > 7.00 | > 7.00 |
| O=C(O)c1n[nH]c(=O)c2sc(N3CCN(S(=O)(=O)c4ccc(OC(F)(F)F)cc4)[C@@H](C(=O)NCc4ccc(OC(F)(F)F)cc4)C3)nc12 [Example 874, 7-oxo-2-[(R)-4-(4-trifluoromethoxy-benzenesulfonyl)-3-(4-trifluoromethoxy-benzylcarbamoyl)-piperazin-1-yl]-6,7-dihydro-thiazolo[4,5-d]pyridazine-4-carboxylic acid] | > 7.00 | > 7.00 |
